Here are results for 18 compounds from ChEMBL document CHEMBL3991601, “The target landscape of clinical kinase drugs” (Science, 2017).

The target of assay [1] is T1, Succinate--CoA ligase [ADP-forming] subunit beta, mitochondrial (Homo sapiens, UniProt Q9P2R7).
T1 sequence (Q9P2R7 whole entry): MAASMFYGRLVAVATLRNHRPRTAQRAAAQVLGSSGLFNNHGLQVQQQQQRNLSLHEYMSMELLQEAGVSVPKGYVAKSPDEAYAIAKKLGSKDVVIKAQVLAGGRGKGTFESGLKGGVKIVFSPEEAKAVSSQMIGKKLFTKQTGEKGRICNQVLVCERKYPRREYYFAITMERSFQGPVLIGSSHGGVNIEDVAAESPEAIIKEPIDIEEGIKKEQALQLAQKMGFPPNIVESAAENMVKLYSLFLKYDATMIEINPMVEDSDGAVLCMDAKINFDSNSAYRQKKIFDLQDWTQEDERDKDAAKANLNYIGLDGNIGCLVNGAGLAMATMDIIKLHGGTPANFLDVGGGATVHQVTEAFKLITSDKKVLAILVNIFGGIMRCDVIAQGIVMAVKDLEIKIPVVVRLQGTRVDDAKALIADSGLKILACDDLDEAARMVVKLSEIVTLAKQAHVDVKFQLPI

For a further assay, the target named is T2, dCTP pyrophosphatase 1 (Homo sapiens, UniProt Q9H773).
T2 sequence (Q9H773 whole entry): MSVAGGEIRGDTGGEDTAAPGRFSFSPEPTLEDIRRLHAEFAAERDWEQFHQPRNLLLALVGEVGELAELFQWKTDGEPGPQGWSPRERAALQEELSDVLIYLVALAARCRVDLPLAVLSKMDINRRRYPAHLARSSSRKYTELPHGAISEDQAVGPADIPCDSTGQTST

Another assay deals with T3, Rab-like protein 3 (Homo sapiens, UniProt Q5HYI8).
T3 sequence (Q5HYI8 whole entry): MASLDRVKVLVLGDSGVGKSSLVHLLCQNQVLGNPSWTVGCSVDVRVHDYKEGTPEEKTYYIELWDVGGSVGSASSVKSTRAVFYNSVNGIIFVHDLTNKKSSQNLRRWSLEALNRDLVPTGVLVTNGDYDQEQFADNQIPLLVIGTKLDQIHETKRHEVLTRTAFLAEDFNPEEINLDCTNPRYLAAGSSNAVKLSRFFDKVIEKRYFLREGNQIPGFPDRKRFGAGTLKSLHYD

The target in assay [2] is T4, Mitogen-activated protein kinase kinase kinase 6 (Homo sapiens, UniProt O95382).
T4 sequence (O95382 whole entry): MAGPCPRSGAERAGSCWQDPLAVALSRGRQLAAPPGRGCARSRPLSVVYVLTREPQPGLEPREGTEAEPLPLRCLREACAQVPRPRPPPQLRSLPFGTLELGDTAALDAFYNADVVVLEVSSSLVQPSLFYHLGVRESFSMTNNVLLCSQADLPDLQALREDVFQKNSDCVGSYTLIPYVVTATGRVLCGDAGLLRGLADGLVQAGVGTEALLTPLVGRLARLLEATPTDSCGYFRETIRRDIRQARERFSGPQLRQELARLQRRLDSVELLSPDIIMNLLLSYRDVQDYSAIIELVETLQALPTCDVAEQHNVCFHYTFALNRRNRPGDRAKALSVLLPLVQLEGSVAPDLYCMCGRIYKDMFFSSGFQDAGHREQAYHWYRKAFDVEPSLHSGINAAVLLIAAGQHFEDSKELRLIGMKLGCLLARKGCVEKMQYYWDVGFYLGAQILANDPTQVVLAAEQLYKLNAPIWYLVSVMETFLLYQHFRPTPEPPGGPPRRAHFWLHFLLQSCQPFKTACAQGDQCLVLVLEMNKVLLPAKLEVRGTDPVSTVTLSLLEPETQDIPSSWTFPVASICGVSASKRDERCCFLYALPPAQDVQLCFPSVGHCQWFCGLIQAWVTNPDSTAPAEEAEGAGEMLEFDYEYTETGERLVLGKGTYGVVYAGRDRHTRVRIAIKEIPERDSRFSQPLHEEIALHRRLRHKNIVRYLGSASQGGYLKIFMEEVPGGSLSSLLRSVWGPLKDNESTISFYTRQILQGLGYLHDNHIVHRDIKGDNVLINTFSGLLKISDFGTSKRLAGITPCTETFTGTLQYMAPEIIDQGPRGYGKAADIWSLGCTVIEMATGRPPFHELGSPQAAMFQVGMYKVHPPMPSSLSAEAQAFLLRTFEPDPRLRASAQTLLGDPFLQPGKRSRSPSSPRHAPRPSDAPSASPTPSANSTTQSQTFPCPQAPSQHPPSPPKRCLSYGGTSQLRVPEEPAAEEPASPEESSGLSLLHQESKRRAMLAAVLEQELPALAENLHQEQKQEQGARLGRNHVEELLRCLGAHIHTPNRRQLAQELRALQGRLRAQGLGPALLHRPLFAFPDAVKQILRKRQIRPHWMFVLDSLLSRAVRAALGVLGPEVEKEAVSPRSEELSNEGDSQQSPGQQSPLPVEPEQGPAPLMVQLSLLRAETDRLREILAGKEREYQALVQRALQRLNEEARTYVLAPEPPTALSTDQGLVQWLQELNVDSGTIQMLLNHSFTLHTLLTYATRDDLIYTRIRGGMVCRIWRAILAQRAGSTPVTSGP

Assay [3] addresses T5, Phosphatidylinositol 5-phosphate 4-kinase type-2 gamma (Homo sapiens, UniProt Q8TBX8).
T5 sequence (Q8TBX8 whole entry): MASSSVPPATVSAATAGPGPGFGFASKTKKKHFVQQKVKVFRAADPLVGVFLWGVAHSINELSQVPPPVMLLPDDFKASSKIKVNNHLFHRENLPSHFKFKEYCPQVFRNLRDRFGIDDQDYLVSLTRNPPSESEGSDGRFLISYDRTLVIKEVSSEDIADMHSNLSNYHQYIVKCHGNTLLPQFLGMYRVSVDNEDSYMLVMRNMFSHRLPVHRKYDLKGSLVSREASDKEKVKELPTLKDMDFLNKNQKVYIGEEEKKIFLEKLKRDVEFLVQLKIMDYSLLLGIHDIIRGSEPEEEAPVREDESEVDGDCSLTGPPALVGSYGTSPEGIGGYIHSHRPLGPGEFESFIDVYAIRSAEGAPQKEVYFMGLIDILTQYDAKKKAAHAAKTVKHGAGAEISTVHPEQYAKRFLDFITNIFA

A further assay addresses Myosin-14 (Homo sapiens, UniProt Q7Z406).
In assay [4] the target is Serine/threonine-protein kinase pim-1 (Homo sapiens, UniProt P11309).

Structures are written as SMILES. The source made the active and inactive calls.
Note: in the data inactive means no Kd found up to 30 µM.

Chain of Serine/threonine-protein kinase pim-1 (P11309 whole entry): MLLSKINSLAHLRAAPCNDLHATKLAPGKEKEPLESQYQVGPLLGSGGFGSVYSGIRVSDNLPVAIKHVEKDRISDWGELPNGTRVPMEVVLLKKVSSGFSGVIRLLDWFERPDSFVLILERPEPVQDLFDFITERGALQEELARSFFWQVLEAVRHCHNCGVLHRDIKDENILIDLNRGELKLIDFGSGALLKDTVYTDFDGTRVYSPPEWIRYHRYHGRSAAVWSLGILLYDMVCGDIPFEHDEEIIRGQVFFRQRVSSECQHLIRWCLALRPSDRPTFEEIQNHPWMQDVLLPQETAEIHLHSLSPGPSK
Chain of Myosin-14 (Q7Z406 whole entry): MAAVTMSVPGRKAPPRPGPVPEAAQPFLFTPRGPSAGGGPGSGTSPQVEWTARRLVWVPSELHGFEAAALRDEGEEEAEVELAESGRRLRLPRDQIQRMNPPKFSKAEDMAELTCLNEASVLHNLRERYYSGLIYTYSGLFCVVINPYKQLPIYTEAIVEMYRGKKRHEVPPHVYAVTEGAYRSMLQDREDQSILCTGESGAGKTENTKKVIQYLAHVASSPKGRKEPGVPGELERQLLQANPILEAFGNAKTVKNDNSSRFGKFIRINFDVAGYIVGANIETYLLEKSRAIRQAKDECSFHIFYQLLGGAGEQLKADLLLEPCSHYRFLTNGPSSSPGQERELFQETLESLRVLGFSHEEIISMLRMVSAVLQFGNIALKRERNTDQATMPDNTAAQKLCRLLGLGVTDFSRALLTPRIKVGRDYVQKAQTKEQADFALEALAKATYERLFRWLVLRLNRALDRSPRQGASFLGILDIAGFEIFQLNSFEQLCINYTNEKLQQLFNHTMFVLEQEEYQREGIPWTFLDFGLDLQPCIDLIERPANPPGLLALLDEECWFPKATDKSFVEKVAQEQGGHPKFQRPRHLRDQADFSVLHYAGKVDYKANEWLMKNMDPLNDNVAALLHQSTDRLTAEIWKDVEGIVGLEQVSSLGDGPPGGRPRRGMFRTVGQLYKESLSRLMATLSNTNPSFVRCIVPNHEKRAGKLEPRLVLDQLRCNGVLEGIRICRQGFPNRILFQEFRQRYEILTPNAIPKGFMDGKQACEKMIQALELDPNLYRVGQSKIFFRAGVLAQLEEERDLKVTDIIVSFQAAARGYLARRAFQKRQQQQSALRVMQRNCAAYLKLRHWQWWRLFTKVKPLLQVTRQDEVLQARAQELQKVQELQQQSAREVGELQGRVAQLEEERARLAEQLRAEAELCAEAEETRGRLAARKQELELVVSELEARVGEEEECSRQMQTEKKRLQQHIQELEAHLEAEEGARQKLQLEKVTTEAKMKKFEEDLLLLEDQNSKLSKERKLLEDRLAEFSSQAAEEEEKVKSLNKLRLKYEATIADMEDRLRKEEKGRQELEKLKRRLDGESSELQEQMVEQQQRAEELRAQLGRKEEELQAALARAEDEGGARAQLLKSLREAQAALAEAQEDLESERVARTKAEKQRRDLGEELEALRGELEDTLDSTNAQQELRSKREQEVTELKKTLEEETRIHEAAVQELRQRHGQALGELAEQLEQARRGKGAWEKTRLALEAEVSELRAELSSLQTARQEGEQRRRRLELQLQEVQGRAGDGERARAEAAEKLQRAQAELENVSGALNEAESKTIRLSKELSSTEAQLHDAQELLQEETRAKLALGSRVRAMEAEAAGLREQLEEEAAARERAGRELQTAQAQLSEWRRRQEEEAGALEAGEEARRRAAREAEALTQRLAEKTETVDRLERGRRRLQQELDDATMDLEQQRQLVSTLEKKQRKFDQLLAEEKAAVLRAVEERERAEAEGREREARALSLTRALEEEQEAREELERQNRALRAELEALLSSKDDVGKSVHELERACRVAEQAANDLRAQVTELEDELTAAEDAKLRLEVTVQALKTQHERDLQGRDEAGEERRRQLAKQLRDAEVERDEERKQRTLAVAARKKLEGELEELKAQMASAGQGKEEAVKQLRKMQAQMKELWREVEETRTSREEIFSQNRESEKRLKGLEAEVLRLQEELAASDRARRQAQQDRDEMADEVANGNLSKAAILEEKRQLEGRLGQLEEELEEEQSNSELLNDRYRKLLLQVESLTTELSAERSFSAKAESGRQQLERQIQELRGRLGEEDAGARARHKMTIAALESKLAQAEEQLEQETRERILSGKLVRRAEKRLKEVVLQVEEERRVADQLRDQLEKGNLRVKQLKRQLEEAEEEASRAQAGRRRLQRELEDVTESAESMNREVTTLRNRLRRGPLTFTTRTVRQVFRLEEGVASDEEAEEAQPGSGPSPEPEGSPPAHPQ

`C=CCn1c(=O)c2cnc(Nc3ccc(N4CCN(C)CC4)cc3)nc2n1-c1cccc(C(C)(C)O)n1` [ADAVOSERTIB]: the Kd (in assay [1]; at dCTP pyrophosphatase 1; on Rab-like protein 3; in assay [2]; in assay [3]; on Myosin-14) was > 30 µM (inactive) each time.
Take `CC1(C)CNc2cc(NC(=O)c3cccnc3NCc3ccncc3)ccc21` [MOTESANIB]: the Kd (in assay [1]; at dCTP pyrophosphatase 1; on Rab-like protein 3) was > 30 µM (inactive) each time.
As for `COc1cc2c(N3CCN(C(=O)Nc4ccc(OC(C)C)cc4)CC3)ncnc2cc1OCCCN1CCCCC1` [TANDUTINIB], the Kd at dCTP pyrophosphatase 1, on Rab-like protein 3 and at Myosin-14 was > 30 µM (inactive) throughout.
With `O=S(=O)(c1cccc2cnccc12)N1CCCNCC1` [FASUDIL], the Kd (in assay [1]; at dCTP pyrophosphatase 1; in assay [2]; in assay [3]; on Myosin-14) was > 30 µM (inactive) each time.
Turning to `O=C(Nc1ccc(OC(F)(F)F)cc1)c1sccc1NCc1ccnc2ccccc12` [OSI-930], the Kd (at dCTP pyrophosphatase 1; in assay [2]; in assay [3]; on Myosin-14; in assay [4]) was > 30 µM (inactive) in each case.
For the compound `COc1ccc(-c2ccc3ncc4c(c3c2)n(-c2ccc(N3CCNCC3)c(C(F)(F)F)c2)c(=O)n4C)cn1` [BGT-226 FREE BASE], the Kd – broadly, the constant that tells how readily two partners part at equilibrium – is > 30 µM (inactive) in assay [1]; > 30 µM (inactive) on dCTP pyrophosphatase 1; > 30 µM (inactive) in assay [2]; 4.79 µM (active) in assay [3]; > 30 µM (inactive) on Myosin-14; > 30 µM (inactive) in assay [4].
For the compound `O=C(O)c1ccc2c(c1)nc(Nc1cccc(Cl)c1)c1ccncc12` [SILMITASERTIB], the Kd was > 30 µM (inactive) in assay [1]; > 30 µM (inactive) at dCTP pyrophosphatase 1; > 30 µM (inactive) on Rab-like protein 3; > 30 µM (inactive) in assay [2]; 1.11 µM (active) in assay [3]; > 30 µM (inactive) on Myosin-14.
For `CCN(CCCOc1ccc2c(Nc3cc(CC(=O)Nc4cccc(F)c4)n[nH]3)ncnc2c1)CCOP(=O)(O)O` [BARASERTIB], the Kd (in assay [1]; at dCTP pyrophosphatase 1; on Rab-like protein 3; in assay [2]; in assay [3]; at Myosin-14) was > 30 µM (inactive) each time.
`CN(C)C/C=C/C(=O)Nc1cc2c(Nc3ccc(F)c(Cl)c3)ncnc2cc1O[C@H]1CCOC1` [AFATINIB]: the Kd at dCTP pyrophosphatase 1, on Rab-like protein 3 and on Myosin-14 was > 30 µM (inactive) throughout.
Take `CCN1CCN(Cc2ccc(Nc3ncc(F)c(-c4cc(F)c5nc(C)n(C(C)C)c5c4)n3)nc2)CC1` [ABEMACICLIB]: the Kd (in assay [1]; on dCTP pyrophosphatase 1; at Rab-like protein 3; in assay [2]; in assay [3]; on Myosin-14) was > 30 µM (inactive) each time.
Take `Cn1cnc2c(F)c(Nc3ccc(Br)cc3Cl)c(C(=O)NOCCO)cc21` [SELUMETINIB]: the Kd (in assay [1]; on dCTP pyrophosphatase 1; on Rab-like protein 3; at Myosin-14) was > 30 µM (inactive) throughout.
As for `C=CC(=O)Nc1cc(Nc2nccc(-c3cn(C)c4ccccc34)n2)c(OC)cc1N(C)CCN(C)C` [OSIMERTINIB], the Kd in assay [1] is > 30 µM (inactive); on dCTP pyrophosphatase 1 it was > 30 µM (inactive); in assay [2], > 30 µM (inactive); in assay [3] it was 2.97 µM (active); on Myosin-14, > 30 µM (inactive); in assay [4], > 30 µM (inactive).
Consider `Cn1c(=O)n(-c2ccc(C(C)(C)C#N)cc2)c2c3cc(-c4cnc5ccccc5c4)ccc3ncc21` [DACTOLISIB], for which the Kd (in assay [1]; at dCTP pyrophosphatase 1; at Rab-like protein 3; in assay [2]; in assay [3]; on Myosin-14) was > 30 µM (inactive) throughout.
In the case of `Cc1c(NC(=O)OC[C@@H]2COCCN2)cn2ncnc(Nc3ccc4c(cnn4Cc4cccc(F)c4)c3)c12` [AC-480], the Kd (in assay [1]; on dCTP pyrophosphatase 1; in assay [2]; in assay [3]; on Myosin-14; in assay [4]) was > 30 µM (inactive) throughout.
For the compound `COc1cc2c(Oc3ccc4[nH]c(C)cc4c3F)ncnc2cc1OCCCN1CCCC1` [CEDIRANIB], the Kd (in assay [1]; at dCTP pyrophosphatase 1; on Myosin-14) was > 30 µM (inactive) in each case.
On to `C[C@]1(O)C[C@@H](c2nc(-c3ccc4ccc(-c5ccccc5)nc4c3)c3c(N)nccn32)C1` [LINSITINIB], for which the Kd is > 30 µM (inactive) in assay [1]; > 30 µM (inactive) on dCTP pyrophosphatase 1; > 30 µM (inactive) at Rab-like protein 3; > 30 µM (inactive) in assay [2]; 5.57 µM (active) in assay [3]; > 30 µM (inactive) at Myosin-14.
As for `CN(c1ncccc1CNc1nc(Nc2ccc3c(c2)CC(=O)N3)ncc1C(F)(F)F)S(C)(=O)=O` [PF-00562271], the Kd (in assay [1]; at dCTP pyrophosphatase 1; on Rab-like protein 3; in assay [2]; in assay [3]; at Myosin-14) was > 30 µM (inactive) each time.
On to `C[C@@]1(C(=O)Nc2ccc(F)nc2)CCCN1c1nc(Nc2cc(C3CC3)n[nH]2)c2cccn2n1` [BMS-754807], for which the Kd (in assay [1]; at dCTP pyrophosphatase 1; at Rab-like protein 3) was > 30 µM (inactive) in each case.
